Measured values as given in patent US20240124398A1 (priority 2021, published 2024).
Several values for one entry are separate records, joined by “and”; a condition that tells them apart may be missing. Equal entries are not always repeated. Entries after “also recorded” stand apart in the source; their conditions may differ. Structures can show the parent of a compound that is named as a salt.

How the values were obtained:
GVS (hygroscopicity) = assay type: physicochemical
[1] = Solubility of psilocin salts in saline; details: for XRPD of Residue: solid residue after 5 hours in saline; for Solubility (in words): comparison among forms or with freeform
[2] = Intrinsic dissolution rate (IDR); assay type: physicochemical; details: for IDR (in words): ranking among TAR Pattern 1, SUC Pattern 3, BEN Pattern 1
[3] = Static storage for 7 days at 40° C./75% RH (XRPD and HPLC); details: for Static Storage 40° C./75% RH: HPLC: HPLC purity after 7 days at 40° C. and 75% relative humidity; for Static Storage 40° C./75% RH: XRPD: XRPD pattern after 7 days at 40° C. and 75% relative humidity
[4] = Table 9, saturated solution in saline, 25° C., 5 hours

Compound: CN(C)CCc1c[nH]c2cccc(O)c12.O=C(O)c1ccccc1 [BEN Pattern 1, Psilocin benzoate]
- GVS hygroscopicity (in words) (GVS (hygroscopicity)): Non-hygroscopic
- GVS reversible mass change between 0-90% RH (GVS (hygroscopicity)): Reversible 0.25%
- pH at 5 hrs ([1]; Table 9, saturated solution in saline, 25° C., 5 hours, listed as Psilocin benzoate BEN Pattern 1): 6.8 and 6.9
- XRPD of Residue ([1]; Table 9): BEN Pattern 1
- pH at 5 hrs ([1]; Table 10 (updated), saline, listed as Psilocin benzoate BEN Pattern 1): 6.8 and 6.9
- Solubility (in words) ([1]; saline): substantial increases in solubility compared with the freeform; also recorded: lowest solubility
- Solubility in Saline ([1]; summary Table 4, saline, 25° C., 5 hours): 5000 µg/mL
- IDR [2]: 0.4 mg/min/cm2
- IDR (in words) [2]: lowest
- Static Storage 40° C./75% RH: HPLC [3]: HPLC- 99.0%
- Static Storage 40° C./75% RH: XRPD [3]: BEN Pattern 1

Compound: CN(C)CCc1c[nH]c2cccc(O)c12.O=S(=O)(O)c1cccc2c(S(=O)(=O)O)cccc12 [Psilocin 1,5-napthalenedisulfonate NAP Pattern 1]
- pH at 5 hrs [1, 4]: 2.0
- XRPD of Residue ([1]; Table 9): NAP Pattern 1
- pH at 5 hrs ([1]; Table 10 (updated), saline): 2.0
- Solubility (in words) ([1]; saline): substantial increases in solubility compared with the freeform
- Static Storage 40° C./75% RH: HPLC [3]: HPLC- 97.2%
- Static Storage 40° C./75% RH: XRPD [3]: NAP Pattern 1

Compound: CN(C)CCc1c[nH]c2cccc(O)c12.O=S(=O)(O)c1cccc2c(S(=O)(=O)O)cccc12 [Psilocin 1,5-napthalenedisulfonate NAP Pattern 2]
- Static Storage 40° C./75% RH: HPLC [3]: HPLC - 99.2%
- Static Storage 40° C./75% RH: XRPD [3]: NAP Pattern 1

Compound: CN(C)CCc1c[nH]c2cccc(O)c12 [Psilocin free base, Psilocin, reference compound]
- pH at 5 hrs [1, 4]: 9.8 and 9.9
- XRPD of Residue ([1]; Table 9): Freeform Pattern 1
- pH at 5 hrs ([1]; Table 10 (updated), saline): 9.8 and 9.9
- IDR [2]: [Freeform = 0.09] mg/min/cm2

Compound: CN(C)CCc1c[nH]c2cccc(O)c12 [Psilocin hydrochloride HCl Pattern 1, Psilocin hydrochloride]
- pH at 5 hrs ([1]; Table 9, saturated solution in saline, 25° C., 5 hours, hydrochloride): 6.0 and 6.1
- pH at 5 hrs ([1]; Table 10 (updated), saline, hydrochloride): 4.0 and 5.4

Compound: CCC(=O)O.CN(C)CCc1c[nH]c2cccc(O)c12 [Psilocin propionate PRO Pattern 1, Psilocin propionate]
- Static Storage 40° C./75% RH: HPLC [3]: HPLC- 99.4%
- Static Storage 40° C./75% RH: XRPD [3]: PRO Pattern

Compound: CN(C)CCc1c[nH]c2cccc(O)c12.O=C(O)c1ccccc1O [Psilocin salicylate SAL Pattern 1, Psilocin salicylate]
- pH at 5 hrs [1, 4]: 4.2
- XRPD of Residue ([1]; Table 9): SAL Pattern 1
- pH at 5 hrs ([1]; Table 10 (updated), saline): 4.2
- Solubility (in words) ([1]; saline): substantial increases in solubility compared with the freeform
- Static Storage 40° C./75% RH: HPLC [3]: HPLC- 99.1%
- Static Storage 40° C./75% RH: XRPD [3]: SAL Pattern

Compound: CN(C)CCc1c[nH]c2cccc(O)c12.O=C(O)c1ccccc1O [Psilocin salicylate SAL Pattern 2, Psilocin salicylate]
- Static Storage 40° C./75% RH: HPLC [3]: HPLC- 99.8%
- Static Storage 40° C./75% RH: XRPD [3]: SAL Pattern 2 +

Compound: Psilocin acetate [Psilocin acetate ACE Pattern 1]
- Static Storage 40° C./75% RH: HPLC [3]: HPLC - 75.2%
- Static Storage 40° C./75% RH: XRPD [3]: ACE Pattern 1 +

Compound: Psilocin acetate [Psilocin acetate ACE Pattern 2]
- Static Storage 40° C./75% RH: HPLC [3]: HPLC- 83.4%
- Static Storage 40° C./75% RH: XRPD [3]: ACE Pattern 3

Compound: Psilocin adipate [Psilocin adipate ADI Pattern 1]
- Static Storage 40° C./75% RH: HPLC [3]: HPLC- 98.4%
- Static Storage 40° C./75% RH: XRPD [3]: ADI Pattern 1 +

Compound: Psilocin adipate [Psilocin adipate ADI Pattern 2]
- Static Storage 40° C./75% RH: HPLC [3]: HPLC- 98.1%
- Static Storage 40° C./75% RH: XRPD [3]: ADI Pattern 3

Compound: Psilocin fumarate [Psilocin fumarate FUM Pattern 1]
- Static Storage 40° C./75% RH: XRPD [3]: FUM Pattern 3; also recorded: FUM Pattern 4

Compound: Psilocin oxalate [Psilocin oxalate OX Pattern 1]
- Static Storage 40° C./75% RH: HPLC [3]: HPLC- 94.4%
- Static Storage 40° C./75% RH: XRPD [3]: OX Pattern 3

Compound: Psilocin oxalate [Psilocin oxalate OX Pattern 2]
- Static Storage 40° C./75% RH: HPLC [3]: HPLC- 97.1%
- Static Storage 40° C./75% RH: XRPD [3]: OX Pattern 3 +

Compound: Psilocin pamoate [Psilocin pamoate PAM Pattern 1]
- Static Storage 40° C./75% RH: HPLC [3]: HPLC- 99.6%
- Static Storage 40° C./75% RH: XRPD [3]: PAM Pattern 1

Compound: Psilocin phosphate [Psilocin phosphate PHO Pattern 1]
- Static Storage 40° C./75% RH: HPLC [3]: HPLC - 93.9%
- Static Storage 40° C./75% RH: XRPD [3]: PHO Pattern 2

Compound: Psilocin succinate
- Static Storage 40° C./75% RH: XRPD [3]: SUC Pattern 5

Compound: Psilocin succinate [SUC Pattern 3]
- GVS hygroscopicity (in words) (GVS (hygroscopicity)): hygroscopic
- GVS mass change between 0 and 80% RH (GVS (hygroscopicity); 0-80% RH): Only 1.0% mass
- IDR [2]: 12.4 mg/min/cm2
- IDR (in words) [2]: highest IDR

Compound: Psilocin tartrate
- Static Storage 40° C./75% RH: XRPD [3]: TAR Pattern 4

Compound: Psilocin tartrate [TAR Pattern 1]
- GVS hygroscopicity (in words) (GVS (hygroscopicity)): Slightly Hygroscopic
- GVS reversible mass change between 0-90% RH (GVS (hygroscopicity)): Reversible 1.4%
- pH at 5 hrs [1, 4]: 3.4
- pH at 5 hrs ([1]; Table 10 (updated), saline): 3.5
- IDR [2]: 6.9 mg/min/cm2
- IDR (in words) [2]: second highest IDR
